“And” between values parts separate entries of the source, which are not always exact repeats. Equal entries are not always repeated. Where two headings read alike, the source gives them in different places.
What was measured:
A549 lung tumors = format: in vivo, hairless mice; settings: day 0 normalized to 1
Procedure: (§1) A549 lung tumors were induced in hairless mice (4×10^6 cells/30 μl of full medium). Animal weights and tumor surface areas/volumes were determined, and in this case, the tumor surface area or the tumor volume (based on an ellipsoid of revolution) was calculated. Length and width of the tumor were measured with vernier calipers. After reaching the size of a pea, the treatment was begun.
(§2) • (a) 20 mmol of Gd/l of the Gd complex compound as mentioned in Example 1 or 3 (as a comparison solution=Blank reading) • (b) 1.5 mmol/l of the epothilone as mentioned in Example 1 or 3, in aqueous hydroxypropyl-β-cyclodextrin solution (prior art) (For the production of formulations in the prior art, see WO 99/07692 and WO 00/4902 1) • (c) Formulation of Example 1 or 3 (formulation according to the invention) Dosages: • (a) 100 μmol of Gd/kg of body weight • (b) 11 μmol/kg or 18 μmol/kg of body weight • (c) 100 μmol of Gd/kg+11 (or 18) μmol of epothilone/kg of body weight (corresponds to the ratio in the formulation of Example 1 or 3).
(§3) The animal weights and tumor sizes were measured over a period of 20 days after intravenous administration.

[1] = format: in vivo, hairless mice; settings: for Relative animal weights: day 0 (about 30-35 g) normalized to 1
Procedure: as §1, §2, §3

[2] = Day 5, 11 μmol of epothilone/kg of body weight i.v. (formulations: plus 100 μmol of Gd/kg)
[3] = Day 5, 18 μmol of epothilone/kg of body weight i.v. (formulations: plus 100 μmol of Gd/kg)
[4] = Day 11, 11 μmol of epothilone/kg of body weight i.v. (formulations: plus 100 μmol of Gd/kg)
[5] = Day 11, 18 μmol of epothilone/kg of body weight i.v. (formulations: plus 100 μmol of Gd/kg)
[6] = Day 15, 11 μmol of epothilone/kg of body weight i.v. (formulations: plus 100 μmol of Gd/kg)
[7] = Day 15, 18 μmol of epothilone/kg of body weight i.v. (formulations: plus 100 μmol of Gd/kg)
[8] = Day 20, 11 μmol of epothilone/kg of body weight i.v. (formulations: plus 100 μmol of Gd/kg)
[9] = Day 20, 18 μmol of epothilone/kg of body weight i.v. (formulations: plus 100 μmol of Gd/kg)
[10] = first days after substance administration, 11 μmol of epothilone/kg of body weight i.v.
[11] = first days after substance administration, 18 μmol of epothilone/kg of body weight i.v.

Row | Compound | Relative tumor surface area (A549 lung tumors; [2]) | Relative tumor surface area (A549 lung tumors; [3]) | Relative tumor surface area (A549 lung tumors; [4]) | Relative tumor surface area (A549 lung tumors; [5]) | Relative tumor surface area (A549 lung tumors; [6]) | Relative tumor surface area (A549 lung tumors; [7]) | Relative tumor surface area (A549 lung tumors; [8]) | Relative tumor surface area (A549 lung tumors; [9]) | Relative animal weights (in words) ([1]; mouse, in vivo, iv) | Relative animal weights [1, 2] | Relative animal weights [1, 3] | Relative animal weights [1, 4] | Relative animal weights [1, 5] | Relative animal weights [1, 6] | Relative animal weights [1, 7] | Relative animal weights [1, 8] | Relative animal weights [1, 9] | Relative animal weights (in words) [1, 10] | Relative animal weights (in words) [1, 11]
1 | Cc1nc(/C=C(\Cl)[C@@H]2C[C@@H]3O[C@]3(C)CCC[C@H](C)[C@H](O)[C@@H](C)C(=O)C(C)(C)[C@@H](O)CC(=O)O2)cs1 [Epothilone C, (1S,3S(Z),7S,10R,11S,12S,16R)-7,11-Dihydroxy-3-(1-chloro-2-(2-methyl-4-thiazolyl)ethenyl)-8,8,10,12,16-pentamethyl-4,17-dioxabicyclo[14.1.0]heptadecane-5,9-dione] | 1.1 ± 0.1 | 1.1 ± 0.1 | 1.4 ± 0.3 | 1.3 ± 0.3 | 1.5 ± 0.3 | 1.6 ± 0.3 | 1.5 ± 0.2 | 1.5 ± 0.2 | small weight loss |  |  |  |  |  |  |  |  |  | 
2 | C=CC[C@H]1C(=O)C(C)(C)[C@@H](O)CC(=O)O[C@H](c2ccc3sc(C)nc3c2)C[C@@H]2O[C@]2(C)CCC[C@H](C)[C@@H]1O [Epothilone F, (1S,3S,7S,10R,11S,12S,16R)-7,11-Dihydroxy-3-(2-methylbenzothiazol-5-yl)-10-(prop-2-en-1-yl)-8,8,12,16-tetramethyl-4,17-dioxabicyclo[14.1.0]heptadecane-5,9-dione] | 1.1 ± 0.1 | 1.1 ± 0.1 | 1.3 ± 0.2 | 1.2 ± 0.2 | 1.5 ± 0.3 | 1.4 ± 0.1 | 1.5 ± 0.4 | 1.5 ± 0.2 |  | 0.94 | 0.92 | 0.97 | 0.93 | 0.97 | 0.97 | 0.96 | 0.99 | small weight loss | small weight loss
3 | CC[C@H]1C(=O)C(C)(C)[C@@H](O)CC(=O)O[C@H](/C(F)=C/c2ccccn2)C/C=C(/C)CCC[C@H](C)[C@@H]1O [Epothilone G, 4S,7R,8S,9S,13(Z),16S(Z)-4,8-Dihydroxy-16-(1-fluoro-2-(2-pyridyl)ethenyl)-7-ethyl-1-oxa-5,5,9,13-tetramethyl-cyclohexadec-13-ene-2,6-dione] | 1.1 ± 0.1 | 1.1 ± 0.1 | 1.3 ± 0.1 | 1.3 ± 0.4 | 1.5 ± 0.3 | 1.5 ± 0.3 | 1.6 ± 0.2 | 1.6 ± 0.2 |  | 0.94 | 0.945 | 0.97 | 0.97 | 0.95 | 0.97 | 0.96 | 0.98 | small weight loss | small weight loss
4 | C#CCC[C@H]1C(=O)C(C)(C)[C@@H](O)CC(=O)O[C@H](/C(C)=C/c2ccccn2)C/C=C(/C)CCC[C@H](C)[C@@H]1O [Epothilone I, (4S,7R,8S,9S,13(Z),16S(E))-4,8-Dihydroxy-16-(1-methyl-2-(2-pyridyl)ethenyl)-1-oxa-5,5,9,13-tetramethyl-7-(but-3-in-1-yl)-cyclohexadec-13-ene-2,6-dione] | 1.2 ± 0.1 |  | 1.3 ± 0.3 |  | 1.4 ± 0.3 |  | 1.5 ± 0.1 |  |  | 0.93 |  | 0.97 |  | 0.97 |  | 0.98 |  | small weight loss | 
5 | C=CC[C@H]1C(=O)C(C)(C)[C@@H](O)CC(=O)O[C@H](/C(C)=C/c2csc(C)n2)C/C=C(/C)CCC[C@H](C)[C@@H]1O [Epothilone K, (4S,7R,8S,9S,13(Z),16S(E))-4,8-Dihydroxy-16-(1-methyl-2-(2-methylthiazol-4-yl)ethenyl)-1-oxa-5,5,9,13-tetramethyl-7-(prop-2-en-1-yl)-cyclohexadec-13-ene-2,6-dione] |  | 1.1 ± 0.1 |  | 1.3 ± 0.3 and 1.3 ± 0.1 |  | 1.5 ± 0.2 |  | 1.6 ± 0.1 and 1.5 ± 0.2 | small weight loss |  |  |  |  |  |  |  |  |  | 
6 | C#CC[C@H]1C(=O)C(C)(C)[C@@H](O)CC(=O)O[C@H](/C(F)=C/c2csc(C)n2)C/C=C(/C)CCC[C@H](C)[C@@H]1O [Epothilone L, (4S,7R,8S,9S,13(Z),16S(Z))-4,8-Dihydroxy-16-(1-fluoro-2-(2-methylthiazol-4-yl)ethenyl)-7-(prop-2-in-1-yl)-1-oxa-5,5,9,13-tetramethyl-cyclohexadec-13-ene-2,6-dione] | 1.1 ± 0.1 | 1.1 ± 0.1 | 1.3 ± 0.1 | 1.3 ± 0.2 | 1.5 ± 0.2 | 1.5 ± 0.2 | 1.5 ± 0.2 | 1.5 ± 0.1 |  | 0.93 | 0.94 | 0.96 | 0.95 | 0.97 | 0.97 | 0.98 | 0.96 | small weight loss | small weight loss
7 | C#CC[C@H]1C(=O)C(C)(C)[C@@H](O)CC(=O)O[C@H](/C(F)=C/c2coc(C)n2)C/C=C(/C)CCC[C@H](C)[C@@H]1O [Epothilone N, (4S,7R,8S,9S,13(Z),16S(Z))-4,8-Dihydroxy-16-(1-fluoro-2-(2-methyloxazol-4-yl)ethenyl)-7-(prop-2-in-1-yl)-1-oxa-5,5,9,13-tetramethyl-cyclohexadec-13-ene-2,6-dione] | 1.1 ± 0.1 |  | 1.2 ± 0.2 |  | 1.5 ± 0.3 |  | 1.6 ± 0.4 |  |  | 0.94 |  | 0.97 |  | 0.98 |  | 0.96 |  | small weight loss | 

— patent publication US20060257322A1, “Pharmaceutical agents that contain fluoroalkyl-containing metal complexes and epothilones” (priority 2005, published 2006)
